We go through four molecules from patent US10434190B2, “Pre-and-intra-operative localization of penile sentinel nodes” (NOVADAQ TECHNOLOGIES ULC, priority 2006, dated 2019).

Entries after “also recorded” stand apart in the source; their conditions may differ.

One data set deals with mammals. As to conditions: cited from earlier work; for neuronal toxicity: several months after the treatment.
Another data set concerns male Sprague-Dawley rats. Briefly: Near infrared fluorescence (NIRF) imaging of lymph nodes after penile intracavernous ICG injection. Type of data set: in vivo, rat. The procedure: Twenty two 22 male Sprague-Dawley rats received penile intracavernous ICG injections (20 μl of 0.25 mg/ml). […] A Novadaq intraoperative NIRF imaging system (SPY®) was used for macroscopic fluorescence imaging and an Olympus NIRF microscope IX 70 (Olympus America, Inc., Center Valley, Pa.) was used for histology. All animals were anesthetized and shaved before imaging. All visualized nodes were sent for NIR microscopy and haematoxylin and eosin (H&E) staining for histological examination.
More than one pair of sentinel lymph nodes were visualized in 2 rats. […] Lymphatic channels were seen leading to sentinel lymph nodes at 6, 12 and 24 hours (FIG. 1). […] (FIG. 1). […] Thus, NIR fluorescence using ICG facilitates both pre- and intraoperative identification of the first site of penile lymphatic drainage. The methods of the invention should therefore improve the accuracy of surgical staging in patients with penile carcinomas.

The conditions of data set [1]: 806 nm excitation light; cited from earlier work.
The conditions of data set [2]: cited from earlier work.

Take `N=C(N)c1ccc(/C=C/c2ccc(C(=N)N)cc2O)cc1` [Fluorogold]: in the data set on mammals, the toxicity in mammals result is “low evidence of toxicity” and the neuronal toxicity result is recorded as “without evidence of neuronal toxicity”.

As to `CC1(C)C(/C=C/C=C/C=C/C=C2\N(CCCCS(=O)(=O)O)c3ccc4ccccc4c3C2(C)C)=[N+](CCCCS(=O)(=O)[O-])c2ccc3ccccc3c21` [ICG, indocyanine green], the “lymphatic channels leading to sentinel lymph nodes” value in the data set with male Sprague-Dawley rats (6, 12 and 24 hours post-injection) is on record as “seen”. For the same molecule, in the data set on male Sprague-Dawley rats (animal studies), the “how long lymph nodes could be seen through the body wall after injection” value is “for days”. In the data set on male Sprague-Dawley rats (rats), the “confirmation of lymph nodes by NIR microscopy and conventional histology” value is “All lymph nodes were confirmed”; the “visualization of inguinal and iliac sentinel lymph nodes with NIRF” value is reported as “clearly visualized”. For the same molecule, the “intraoperative confirmation of preoperative localization of inguinal nodes” value with male Sprague-Dawley rats (rats, intraoperative NIRF) is “confirmed the preoperative localization of the inguinal nodes; also recorded: confirmed preoperative localization of all inguinal nodes”. The emitted light wavelength in data set [1] was 830 nm. In data set [2] (in vivo), the enterohepatic recirculation result was “does not undergo enterohepatic recirculation”, the “metabolism in the body” value was “not metabolized”, the “reabsorption from the intestine” value was “not reabsorbed” and the route of excretion result is “excreted exclusively by the liver”. For the same molecule, the “distribution after intravenous injection” value in data set [2] (normal vascular permeability) is on record as “remains intravascular”. Also, in the data set with mammals, the toxicity in mammals entry is “low evidence of toxicity” and the neuronal toxicity entry is recorded as “without evidence of neuronal toxicity”.

With `CC1(C)C(/C=C/C=C/C=C/C=C2\N(CCCCS(=O)(=O)[O-])c3ccc4ccccc4c3C2(C)C)=[N+](CCCCS(=O)(=O)[O-])c2ccc3ccccc3c21.[Na+]` [indocyanine green (ICG)], the “shortest time after injection to ability to visualize the lymph nodes” value in the data set on male Sprague-Dawley rats (animal model) is 10 min.

For Fast Blue, in the data set with mammals, the toxicity in mammals entry was “low evidence of toxicity” and the neuronal toxicity result is on record as “without evidence of neuronal toxicity”.
